According to patent publication US9199975B2, “Biaryl imidazole derivatives for regulating CYP17” (Asana Biosciences, LLC, priority 2011, dated 2015):

Each compound was assayed against T1, human CYP17 (Homo sapiens, UniProt P05093) (assay: Cell-based human CYP17 inhibition assay, LNCap-CYP17 cells). Settings: 16 hours at 37° C.
T1 sequence (P05093 1-508): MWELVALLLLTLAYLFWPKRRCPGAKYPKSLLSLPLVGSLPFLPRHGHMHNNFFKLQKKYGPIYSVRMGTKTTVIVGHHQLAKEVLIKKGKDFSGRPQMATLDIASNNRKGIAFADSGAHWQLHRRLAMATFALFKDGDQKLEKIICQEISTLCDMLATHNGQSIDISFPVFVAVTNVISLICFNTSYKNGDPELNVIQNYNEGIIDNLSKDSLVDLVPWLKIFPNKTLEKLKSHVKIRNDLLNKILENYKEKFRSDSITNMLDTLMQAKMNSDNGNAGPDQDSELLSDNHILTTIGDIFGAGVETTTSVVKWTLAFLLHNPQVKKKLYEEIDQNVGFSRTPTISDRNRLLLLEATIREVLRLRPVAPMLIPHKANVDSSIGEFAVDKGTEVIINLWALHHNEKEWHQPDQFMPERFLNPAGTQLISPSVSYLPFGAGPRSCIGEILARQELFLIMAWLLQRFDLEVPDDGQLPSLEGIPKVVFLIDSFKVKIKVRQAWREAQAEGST
Method: Cell-Based Human CYP17 Inhibition Assay
A. Materials • 1. H295R Adrenocortical Carcinoma Cells and Growth Media: The media for the H295R Adrenocortical carcinoma cells [NCI-H295A, ATCC Number CRL-2128, American Type Culture Collection, Manassas, Va., US] (500 mL) was a DMEM:F12 Mix 1:1 with 5% […] BD Nu Serum; 1% (5 mL) ITS+Premix [BD Biosciences] and 1% Penstrep. • 2. LNCap-CYP17 Cells and Growth Media: Full length hCYP17a1 gene (NCBI Reference Sequence: NM_000102.3) was cloned in pCDNA3.1(+) vector between HindIII and XhoI site. The pCDNA3.1(+) vector contains the Neomycin resistance gene and was used for selection of stable cell line. The hCYP17a1 containing pCDNA3.1(+) was transfected into LNCap cells to create the LNCap-CYP17 cell line. The media for the LNCaP-CYP17 cells was RPMI 1640, 10% FBS, 1% PenStrep, Geneticin 400 μg/mL.
The H295R cells or LNCaP-hCYP17 cells were subcultured and 30,000 cells per well were seeded in a poly-d lysine plate and incubated overnight at 37° C. The next day the media was removed and 200 µL of fresh media with ^3H3-17α-hydroxy-pregnenolone (1:1000) was added. 50 μL of serially diluted compounds from a 5× plate (5 times the final desired concentration) was added. The working concentration range for active, new compounds started from a high concentration of […] with 3-fold serial dilutions generating up to 10 concentrations. The serial dilution in the 100× plate (in DMSO) and the stamping of a 5× plate (in media) from the 100× plate were carried out using a TECAN liquid handling device.
The plates were incubated overnight (16 hours) at 37° C. After 16 hours, the media was removed (approximately 220 μL) and an equal amount of chloroform was added, mixed and incubated for 30 minutes at 4 degrees. The plate was centrifuged at 4000 rpm for 15 minutes at 4° C., following which the top aqueous layer was carefully removed and added into a new deep well plate. An equal volume of activated 5% charcoal was added, mixed and incubated for 30 minutes at 4° C. The plate was then centrifuged at 4000 rpm for 15 minutes at 4° C. and the top layer carefully separated, avoiding any charcoal contamination, and placed in a white, clear bottom plate (plate cat #3610, Corning Life Sciences). An equal volume of Microscint™ 40 was added and mixed well. Following the incubation for 30 minutes, readings for the radiotracer were taken using a Microbeta® trilux.

Structure (SMILES)	IC50 [nM]
CCOC(=O)c1ccc(-c2ccc(C(CC)n3ccnc3)nc2)cc1 (stereo not drawn) [Example 5, Ethyl 4-(6-(1-(1H-imidazol-1-yl)propyl)pyridin-3-yl)benzoate]	201 to 10000
CCC(c1ccc(-c2cccc(OC)c2)cn1)n1ccnc1 (stereo not drawn) [Example 7, 2-(1-(1H-imidazol-1-yl)propyl)-5-(3-methoxyphenyl)pyridine]	50 to 200
CCC(c1ccc(-c2cccc(O)c2)cn1)n1ccnc1 (stereo not drawn) [Example 8, 3-(6-(1-(1H-imidazol-1-yl)propyl)pyridin-3-yl)phenol]	50 to 200
CCC(c1ccc(-c2ccc(OC)cc2)o1)n1ccnc1 (stereo not drawn) [Example 27, 1-{1-[5-(4-Methoxy-phenyl)-furan-2-y]-propyl}-1H-imidazole]	50 to 200
CCC(c1ccc(-c2ccc(O)cc2)o1)n1ccnc1 (stereo not drawn) [Example 30, 4-[5-(1-Imidazol-1-yl-propyl)-furan-2-yl]-phenol]	< 50
CCC(c1cnc(-c2ccc(OC)cc2)s1)n1ccnc1 (stereo not drawn) [Example 35, 5-(1-Imidazol-1-yl-propyl)-2-(4-methoxy-phenyl)-thiazole]	201 to 10000
CCC(c1ccc(-c2ccccc2O)cn1)n1ccnc1 (stereo not drawn) [Example 37, 2-[6-(1-Imidazol-1-yl-propyl)-pyridin-3-yl]-phenol]	201 to 10000
CC(c1ccc(-c2ccc(O)cc2)s1)n1ccnc1 (stereo not drawn) [Example 49, 4-[5-(1-Imidazol-1-yl-ethyl)-thiophen-2-yl]-phenol]	50 to 200
CCC(c1ccc(-c2ccccc2OC)cn1)n1ccnc1 (stereo not drawn) [Example 56, 2-(1-Imidazol-1-yl-propyl)-5-(2-methoxy-phenyl)-pyridine]	201 to 10000
CCC(c1cnc(-c2ccc(O)cc2)s1)n1ccnc1 (stereo not drawn) [Example 60, 4-[5-(1-Imidazol-1-yl-propyl)-thiazol-2-yl]-phenol]	201 to 10000

Each compound was assayed on testosterone production in H295R cells (assay: Cell-based functional assay for testosterone production in H295R cells). Settings: Homo sapiens, NCI-H295R, 72 hours, testosterone ELISA, read-out: Testosterone (human H295R adrenal cells).
Method: Cell-based Functional Assay for Testosterone Production
H295R cells (ATCC Number CRL-2128) were subcultured, seeded (30,000 cells per well in a poly-d lysine plate) and left overnight at 37° C. The next day (after approximately 24 hours), the media were removed and 200 μL fresh media were added. Then, 50 μL of serially diluted compounds was added from a 5× plate. The serial dilution in the 100× plate (in DMSO) and the stamping of a 5× plate (in media) from the 100× plate were carried out using a TECAN liquid handling device. The plate was incubated at 37° C. for 72 hours. After incubation, the media was removed, diluted 5 to 10 times with calibration diluent RD5-48, and the assay performed as per manufacturer's protocol (Parameter Testosterone Assay, Cat. No. KGE010, R&D systems; http://www.rndsystems.com/pdf/KGE010.pdf).

Structure (SMILES)	IC50 [nM]
CC(c1ccc(-c2ccc(F)cc2)cn1)n1ccnc1 (stereo not drawn) [Example 12, 2-(1-(1H-imidazol-1-yl)ethyl)-5-(4-fluorophenyl)pyridine]	201 to 10000
CC(c1ccc(-c2ccc(=O)n(C)c2)s1)n1ccnc1 (stereo not drawn) [Example 20, 5-(5-(1-(1H-imidazol-1-yl)ethyl)thiophen-2-yl)-1-methylpyridin-2(1H)-one]	< 50
CC(c1ccc(-c2ccc(=O)n(C(C)C)c2)s1)n1ccnc1 (stereo not drawn) [Example 21, 5-(5-(1-(1H-imidazol-1-yl)ethyl)thiophen-2-yl)-1-isopropylpyridin-2(1H)-one]	201 to 10000
CC(c1cnc(-c2ccc(C#N)cc2)s1)n1ccnc1 (stereo not drawn) [Example 22, 4-(5-(1-(1H-imidazol-1-yl)ethyl)thiazol-2-yl)benzonitrile]	201 to 10000
CC(c1cnc(-c2ccc(F)cc2F)s1)n1ccnc1 (stereo not drawn) [Example 28, 2-(2,4-Difluoro-phenyl)-5-(1-imidazol-1-yl-ethyl)-thiazole]	50 to 200
